Test results as given in patent publication US10238631B2, “Sesquiterpene derivatives and their use in inflammation or cancer treatment” (Academia Sinica, priority 2014, dated 2019).
Like-named read-outs stand apart in the source and are kept apart here.

Experiments:
A375 (BRAF mutation) = assay: MTT cell viability assay, A375 melanoma; assay type: cell-based, human; details: Homo sapiens, A-375, 24 h, read-out: IC50 on cell viability, A375 (BRAF mutation)
Method: (§1) Normal or cancer cells (2×10^3 to 1×10^4 cells/well) were seeded in 96-well plate for overnight and treated with different compounds for 24 h to 72 h. Cells growth were determined by MTT-based colorimetric assays according to. Viability of the test cells treated with vehicle (0.5% DMSO) only was defined as 100% viable. Survival of cells after treatment with DETDs was calculated using the following formula: viable cell number (%)=OD570 (treated cell culture)/OD570 (vehicle control)×100.
(§2) Several genes are involved in melanoma development and pathology; specifically, mutation in V-raf murine sarcoma viral oncogene homolog B1 (B-RAF) occurs approximately 50-60% and in neuroblastoma RAS viral oncogene homolog (N-RAS) occurs about 30% of malignant melanomas. A spectrum of wild-type or mutated melanoma cell lines including B16-F10, MeWo, A375, A2058, HTB-68, and melanocyte were used to study anti-melanoma cell proliferation activity of parental phytocompound DET and newly synthesized DETDs.
To investigate whether or not DETD-35 show synergism with PLX4032 against A375 melanoma cells, we performed anti-proliferation assay using MTT reagent to obtain IC50 of each compound. […] The synergistic effect was quantified by combination index (CI) analysis as stated above.

[1] = tested on: MCF-7 (ER+, Her2−) human breast cancer cells; assay: MTT cell viability assay, MCF-7 cells; assay type: cell-based; details: MCF7, 24 h, read-out: IC50 on cell viability, MCF-7 (ER+, Her2−)
Method: as §1
(§3) Sixty DETDs were derived from parental compound […] and tested for anti-breast cancer cell activity.

[2] = tested on: M10 normal mammary epithelial cells; assay: MTT cell viability assay, M10 normal cells; assay type: cell-based, human; details: Homo sapiens, Epithelial cell, 24 h
Method: as §1, §3

[3] = tested on: TS/A (ER+, Her2−) murine mammary cancer cells; assay: MTT cell viability assay, TS/A cells; assay type: cell-based; details: Mus musculus, 24 h, read-out: IC50 on cell viability, TS/A (ER+, Her2−)
Method: as §1, §3

[4] = tested on: Melanocyte (Normal cells); assay: MTT cell viability assay, normal melanocytes; assay type: cell-based, human; details: Homo sapiens, Melanocyte, 24 h
Method: as §1, §2

HTB-68 (NRAS mutation) = assay: MTT cell viability assay, HTB-68 melanoma; assay type: cell-based, human; details: Homo sapiens, 24 h
Method: as §1, §2

A2058 (BRAF mutation) = assay: MTT cell viability assay, A2058 melanoma; assay type: cell-based, human; details: Homo sapiens, A2058, 24 h
Method: as §1, §2

[5] = tested on: LPS-induced nitric oxide (NO) production in RAW 264.7 cells; assay: Nitric oxide production in LPS-stimulated macrophages (Griess); assay type: cell-based, mouse; details: Mus musculus; LPS-stimulated RAW264.7, nitrite 24 h after LPS
Method: (§4) Marcophages (2×10^5 cells/well in 96-well plate) were treated with compounds for 1 h, then incubated further for 24 h with or without the presence of […] LPS in the cultural medium. Nitrite levels in cell culture medium were determined by the Griess reaction method. In parallel to the Griess assays, macrophage cell viabilities were determined using the MTT based colorimetric assay.
LPS from the outer membrane of Gram-negative bacteria can induce mRNA or protein levels of inducible nitric oxide synthase (iNOS), which catalyzes oxidative deamination of L-arginine to produce nitric oxide (NO). Once NO is predominantly produced, it interacts with superoxide anion and generates highly reactive oxidants resulting in cellular inflammation, DNA, protein and tissue damages, carcinogenesis, and antiapoptosis. We used in vitro LPS stimulated inflammation in RAW264.7 cell system to evaluate the effect of DET and its derivatives DETDs on NO production by determination of nitrite level (equivalent to NO level) in culture medium 24 h after LPS treatment.

[6] = tested on: MeWo (No NRAS or BRAF mutation); assay: MTT cell viability assay, MeWo melanoma; assay type: cell-based, human; details: Homo sapiens, MeWo, 24 h
Method: as §1, §2

[7] = tested on: MDA-MB-231 (ER−, PR−, Her2−) human breast cancer cells; assay: MTT cell viability assay, MDA-MB-231 cells; assay type: cell-based; details: Homo sapiens, MDA-MB-231, 24 h, read-out: IC50 on cell viability, MDA-MB-231 (ER−, PR−, Her2−)
Method: as §1, §3

[8] = tested on: RAW264.7 (normal macrophage); assay: MTT cell viability assay, RAW264.7 macrophages; assay type: cell-based, mouse; details: Mus musculus, RAW264.7, 24 h
Method: as §1, §4

B16-F10 (NRAS mutation) = assay: MTT cell viability assay, B16-F10 melanoma; assay type: cell-based; details: Mus musculus, B16-F10, 24 h, read-out: IC50 on cell viability, B16-F10 (NRAS mutation)
Method: as §1, §2

IC50 [1] [µM] | IC50 [3] [µM] | IC50 (HTB-68 (NRAS mutation)) [µM] | IC50 (A2058 (BRAF mutation)) [µM] | IC50 [5] [µM] | IC50 [6] [µM] | IC50 [7] [µM] | IC50 (A375 (BRAF mutation); 24 h, MTT) [µM] | IC50 (B16-F10 (NRAS mutation); 24 h) [µM] | SMILES | IC50 (A375 (BRAF mutation)) [µM] | IC50 [2] [µM] | IC50 [4] [µM] | IC50 [8] [µM] | IC50 (B16-F10 (NRAS mutation)) [µM]
> 7.5 | 3.8 | 4.5 | 5 | 3.1 | 6.3 | 7.3 | 2.6 | 5.4 | C=C1C(=O)OC2CC3=C[C@@H](C/C(C)=C/C(OC(=O)Cc4ccc5cc(OC)ccc5c4)[C@H]12)OC3=O (stereo partly drawn) [DETD-46] |  | > 7.5 | > 10 | > 10 | 
> 7.5 | > 7.5 | > 10 | > 10 | > 10 | > 10 | > 15 | 8.3 | > 10 | C=C1C(=O)OC2CC3=C[C@@H](C/C(C)=C/C(OC(=O)/C=C/c4cccc(OC(F)(F)F)c4)[C@H]12)OC3=O (stereo partly drawn) [DETD-47] |  | > 7.5 | > 10 | > 10 | 
3.4 | 2.7 | > 10 | > 10 | 1.8 | > 10 | 5.9 | > 10 | 6 | C=C1C(=O)OC2CC3=C[C@@H](C/C(C)=C/C(OC(=O)CC(C)C)[C@H]12)OC3=O (stereo partly drawn) [DETD-10] |  | > 7.5 | > 10 | > 10 | 
3.5 | 1.7 | > 10 | > 10 | 3.8 | > 10 | 4.6 | > 10 | 7.8 | C=C(CC)C(=O)OC1/C=C(\C)C[C@@H]2C=C(CC3OC(=O)C(=C)[C@@H]13)C(=O)O2 (stereo partly drawn) [DETD-19] |  | > 7.5 | > 10 | > 10 | 
> 7.5 | > 7.5 | > 10 | > 10 | > 10 | > 10 | 8.2 | 6.9 | > 10 | C=C1C(=O)OC2CC3=C[C@@H](C/C(C)=C/C(OC(=O)/C=C/c4cccc(C(F)(F)F)c4)[C@H]12)OC3=O (stereo partly drawn) [DETD-48] |  | > 7.5 | > 10 | > 10 | 
> 7.5 | > 7.5 | > 10 | > 10 | > 10 | > 10 | > 7.5 | > 10 | > 10 | C=C1C(=O)OC2CC3=C[C@@H](C/C(C)=C/C(OC(=O)C(Cl)Cl)[C@H]12)OC3=O (stereo partly drawn) [DETD-9] |  | > 7.5 | > 10 | > 10 | 

SMILES | IC50 [1] [µM] | IC50 [3] [µM] | IC50 (HTB-68 (NRAS mutation)) [µM] | IC50 (A2058 (BRAF mutation)) [µM] | IC50 [5] [µM] | IC50 [6] [µM] | IC50 [7] [µM] | IC50 (A375 (BRAF mutation); 24 h, MTT) [µM] | IC50 (B16-F10 (NRAS mutation); 24 h) [µM] | IC50 (A375 (BRAF mutation)) [µM] | IC50 [2] [µM] | IC50 [4] [µM] | IC50 [8] [µM] | IC50 (B16-F10 (NRAS mutation)) [µM]
C=C1C(=O)OC2CC3=C[C@@H](C/C(C)=C/C(OC(=O)CC(O)(C(C)C)C(C)C)[C@H]12)OC3=O (stereo partly drawn) [DETD-23] | 2.5 | 2.4 | > 10 | > 10 | 3.8 | > 10 | 5.9 |  |  | > 10 | > 7.5 | > 10 | > 10 | 8.6
C=C1C(=O)OC2CC3=C[C@@H](C/C(C)=C/C(OC(=O)CC(C)(CC)OC(C)=O)[C@H]12)OC3=O (stereo partly drawn) [DETD-11] | 4.2 | 2.9 | > 10 | > 10 | 2.3 | > 10 | > 7.5 |  |  | > 10 | > 7.5 | > 10 | > 10 | > 10
